According to BindingDB's records for patent US20230416268 (Enanta Pharmaceuticals, 2023):
pIC50: −log10 of the molar value.

Biological target: T1, 17-beta-hydroxysteroid dehydrogenase 13 (Homo sapiens, UniProt Q7Z5P4)
T1 sequence (Q7Z5P4 whole entry): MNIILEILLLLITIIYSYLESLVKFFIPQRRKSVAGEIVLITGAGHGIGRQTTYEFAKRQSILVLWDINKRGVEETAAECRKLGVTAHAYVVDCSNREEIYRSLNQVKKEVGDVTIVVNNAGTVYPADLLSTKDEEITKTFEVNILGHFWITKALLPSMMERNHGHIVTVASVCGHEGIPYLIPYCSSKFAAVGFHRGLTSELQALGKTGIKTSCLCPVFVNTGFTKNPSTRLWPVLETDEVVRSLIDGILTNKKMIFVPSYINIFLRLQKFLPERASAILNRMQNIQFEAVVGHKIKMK
Assay: 17β-HSD13 Rapid-Fire Mass Spectrometry Assay
Description: Recombinant human 17β-HSD13 was expressed and purified from sf9 cells at Charles River Labs (Saffron Walden, UK). Leukotriene B4 (Catalog #71160-24-2) and 12-oxoleukotriene B4 (Catalog #20140) were purchased from Cayman Chemicals (Ann Arbor, MI). NAD+ (Catalog #N8285), BSA (Catalog #A7030), DMSO (Catalog #D2650), and Tween-20 (Catalog #11332465001) were purchased from Sigma (St. Louis, MO). Formic acid (Catalog #28905) was from ThermoFisher Scientific and 384 deep well PP microplates (Catalog #784261) were from Greiner Bio-One. In a typical IC50 assay performed in a 384w PP microplate, test compounds (0-100 μM) were incubated with HSD17B13 (80 nM), LTB4 (10 μM), and NAD+ (0.5 mM) in 10 μL assay buffer (20 mM Tris (pH 7.5), BSA (0.005%), and Tween-20 (0.01%)) at RT for 3 h. The assays were quenched by adding 20 μL of 0.15% aqueous formic acid and the plates were frozen at −80° C. RF/MS analysis was performed at PureHoney Technologies (Billerica, MA) on a RapidFire RF300 system (Agilent Technologies, Inc.) coupled to an API 4000 triple quadrupole mass spectrometer (Sciex) equipped with Agilent RapidFire cartridge type A (C4). […] Leukotriene B4 (335.3) and 12-oxoLeukotriene B4 (333.3) SRM transitions were optimized with Discovery Quant software and extracted ion counts for these analytes were determined.

- pIC50: > 7.00
Structure (SMILES): COc1ccc(-c2nc3sc4c(O)cccc4c3c(=O)n2CCNCc2cnc[nH]2)c(C2CC2)c1 [US20230416268, Example 31]
